Earlier results as cited in patent US20060111442A1, “Use of methyl pyruvate to increase cellular energy production downstream of glycolysis for the PARP-1 ablation of HIV without necrotic cell death caused by continuous, chronic PARP-1 activation through the concomitant depletion of ATP and NAD” (priority 2004, published 2006).
Where two headings read alike, the source gives them in different places.

What was measured:
[1] = tested on: primary astrocyte cultures; conditions: for MPT and cell death: after PARP-1 activation, cyclosporin A sub-micromolar
[2] = tested on: human glioblastoma cell lines (A172, U87-MG, M059K, M059J); conditions: all cell lines
[3] = tested on: THP-1 monocytic cells; conditions: PMA-stimulated
[4] = tested on: human non-small cell lung carcinoma cell lines (H1838 and H2106)
[5] = tested on: hepatic stellate cells (HSC)
[6] = tested on: human neuroblastoma cells (SK-N-SH and SK-N-MC); conditions: for 15-deoxy-PGJ2-induced cell growth inhibition: co-treatment
[7] = tested on: human mammary tumour cell lines
[8] = molecular target: T1, PPARgamma (Homo sapiens, UniProt P37231); set-up: endogenous in cells; host or cells: human mammary tumour cell lines
T1 sequence (P37231 1-505): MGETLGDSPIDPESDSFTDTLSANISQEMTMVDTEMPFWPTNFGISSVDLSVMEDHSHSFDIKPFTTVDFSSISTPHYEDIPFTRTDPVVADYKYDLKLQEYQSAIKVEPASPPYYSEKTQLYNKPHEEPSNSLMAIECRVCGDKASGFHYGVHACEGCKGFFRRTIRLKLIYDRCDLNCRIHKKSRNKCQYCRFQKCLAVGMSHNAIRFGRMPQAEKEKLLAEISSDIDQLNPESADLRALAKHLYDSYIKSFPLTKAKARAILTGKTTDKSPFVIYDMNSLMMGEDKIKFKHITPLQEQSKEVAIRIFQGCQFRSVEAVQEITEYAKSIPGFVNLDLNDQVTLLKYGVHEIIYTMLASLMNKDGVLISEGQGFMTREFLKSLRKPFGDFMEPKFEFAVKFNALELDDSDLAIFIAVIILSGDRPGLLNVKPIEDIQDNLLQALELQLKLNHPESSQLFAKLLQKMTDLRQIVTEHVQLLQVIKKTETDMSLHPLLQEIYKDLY

[9] = tested on: porcine carotid artery strips; conditions: for change in resting tone: 10 mM KCl
[10] = not given; remark: listed apart in the source
[11] = 30 mg/kg i.p. 30 min prior to rosiglitazone
[12] = molecular target: T2, PPARalpha (Homo sapiens, UniProt Q07869)
T2 construct: expressed in transfected cells

[13] = molecular target: T1, PPARgamma; set-up: expressed in transfected cells
[14] = tested on: human coronary VSMCs
[15] = tested on: rat aortic vascular smooth muscle cell; conditions: 0.1-10 microM
[16] = tested on: LXR
[17] = tested on: Mouse neuron and astrocyte cultures; conditions: for NAD(+) depletion resulting from PARP1 activation: MNNG or H(2)O(2); for poly(ADP-ribose) accumulation: during MNNG exposure, immunostaining; for Cell death: hydrogen peroxide, NMDA or MNNG exposure
[18] = mouse, in vivo
[19] = human, in vivo

T2 sequence (Q07869 whole entry, species assumed): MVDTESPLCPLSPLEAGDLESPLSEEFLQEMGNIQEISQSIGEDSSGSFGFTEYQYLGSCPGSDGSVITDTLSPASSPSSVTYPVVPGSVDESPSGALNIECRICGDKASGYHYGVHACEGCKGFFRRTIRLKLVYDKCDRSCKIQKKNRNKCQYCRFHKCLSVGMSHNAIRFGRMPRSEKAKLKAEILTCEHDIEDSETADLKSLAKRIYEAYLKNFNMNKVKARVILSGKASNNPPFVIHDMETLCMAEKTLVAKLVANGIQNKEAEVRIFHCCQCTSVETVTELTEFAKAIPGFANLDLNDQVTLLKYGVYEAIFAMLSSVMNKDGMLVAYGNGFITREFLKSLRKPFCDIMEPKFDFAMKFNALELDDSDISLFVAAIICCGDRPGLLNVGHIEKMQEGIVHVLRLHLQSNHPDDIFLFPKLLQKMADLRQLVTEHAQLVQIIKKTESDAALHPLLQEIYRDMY

For cyclosporin A, the “translocation of the apoptosis-inducing factor from mitochondria to nuclei” value [1] is listed as “blocked translocation” and the “MPT and cell death” value [1] is listed as “blocked MPT and cell death”.
For `CCCCC/C=C/C=C1/C(=O)C=C[C@@H]1C/C=C\CCCC(=O)O` [PGJ2, 15-deoxy-Delta12,14-prostaglandin J2], the proliferation [2] is given as “inhibited proliferation”, the “nitrotyrosine formation and ICAM-1 upregulation during reperfusion” value (0.3 mg kg-1 i.v.) is given as “markedly reduced” and the “fall in mean arterial blood pressure, mortality rate, MPO activity, MDA levels, TNF-alpha and IL-1 beta, histological gut injury” value (0.3 mg kg-1 i.v. 30 min prior to ischaemia) is given as “significantly reduced”. The “IL-1, IL-6 and TNFalpha secretion” value [3] was “inhibitory effect”, the IL-1Ra production [3] was “increasing IL-1Ra production” and the “EP2 mRNA and protein levels” value [4] was “significant decrease”. For the same compound, the cell growth [4] was “inhibition of cell growth”, the “alpha1 (I) procollagen promoter activity” value [5] was “inhibited” and the “HSC DNA and collagen synthesis” value ([5]; 10 microm 15dPGJ(2), 0.1 approximately 10 microm BRL49653, WY14643 >100 microm, not <10 microm) was “inhibited DNA and collagen synthesis without affecting the cell viability”. For the same compound, the induction of apoptosis [6] was “increased the induction of apoptosis in a dose-dependent manner” and the cell growth ([6]; both cells) was “inhibited cell growth in time- and dose-dependent manners”.
For `O=C(Nc1ccccc1)c1cc([N+](=O)[O-])ccc1Cl` [GW9662, 2-chloro-5-nitro-N-henylbenzamide], the “growth of tumour cell lines” value [7] is listed as “inhibited growth”, the rosiglitazone-induced growth inhibition ([7]; combination with rosiglitazone) is listed as “enhanced rather than reversed” and the “activation of PPARgamma” value [8] is listed as “prevented activation of PPARgamma”. The “abrogation of suppression of HSC collagen by 15dPGJ(2)” value ([5]; concomitant treatment) was 70% and the “15-deoxy-PGJ2-induced cell growth inhibition” value [6] was “reversed”.
For `[Cl-].[K+]` [KCl], the “change in resting tone” value ([9]; glucose-PSS) is given as -0.8 ± 0.8 g, the “change in resting tone” value ([9]; lactate-PSS) is given as 1.5 ± 0.7 g and the “change in resting tone” value ([9]; pyruvate-PSS) is given as -2.1 ± 0.8 g.
In the case of `NC(=O)c1ccc[n+]([C@@H]2O[C@H](COP(=O)([O-])OP(=O)(O)OC[C@H]3O[C@@H](n4cnc5c(N)ncnc54)[C@H](O)[C@@H]3O)[C@@H](O)[C@H]2O)c1` [NAD(+)], the “translocation of the apoptosis-inducing factor from mitochondria to nuclei” value [1] is given as “blocked translocation”, the “glycolytic capacity and cell death” value ([1]; 10 mM extracellular NAD(+) after MNNG exposure) is given as “completely restored glycolytic capacity and prevented cell death” and the “MPT and cell death” value [1] is given as “blocked both MPT and cell death”.
For `CN(C)C(=N)N=C(N)N` [metformin], the “HbA1c, insulin, and free fatty acid concentrations” value ([10]; 8 mg rosiglitazone or 2 g metformin, 16 weeks) is given as “similarly decreased”, the “Body weight at 16 weeks” value ([10]; 2 g metformin, baseline 84+/−4, P<0.05) is given as 82 ± 4 kg and the “Serum adiponectin concentrations, increase” value ([10]; 16 weeks) is given as “remained unchanged”. The “Liver fat (proton spectroscopy) at 16 weeks” value ([10]; baseline 15+/−3 rosiglitazone, 13+/−3 metformin) was 14+/−3%.
In the case of `COc1cccc(-c2cc(=O)c3ccccc3o2)c1N` [PD98059, 2′-amino-3′-methoxyflavone], the “15-deoxy-PGJ2-induced cell growth inhibition” value [6] is given as “significantly prevented”.
For `CC(C)(c1ccc(OCC2CO2)cc1)c1ccc(OCC2CO2)cc1` (stereo not shown) [BADGE, bisphenol A diglycidyl ether], the “protective effect of rosiglitazone or 15d-PGJ2 against gut I/R” value (1 mg kg-1 i.v. 30 min prior to agonist) is listed as “abolished the protective effect” and the “anti-inflammatory effects of rosiglitazone” value [11] is listed as “abolished the anti-inflammatory effects”.
In the case of `CC(C)=CCC(=O)C1(O)C(O)=C(C(=O)C(C)C)C(=O)C1CC=C(C)C` (stereo not shown) [isocohumulone], the “activation of PPARalpha” value [12] is given as “activate” and the “activation of PPARgamma” value [13] is given as “activate”.
In the case of `O=C(O)c1c(Sc2ccccc2)c2cc(Cl)ccc2n1Cc1ccc(Cl)cc1` [nTZDpa], the apoptosis [14] is listed as “induce caspase-mediated apoptosis” and the “vascular smooth muscle cell growth” value [15] is listed as “inhibited vascular smooth muscle cell growth”.
In the case of `CN(CCOc1ccc(C[C@H](Nc2ccccc2C(=O)c2ccccc2)C(=O)O)cc1)c1ccccn1` [GW1929], the “EP2 mRNA and protein levels” value [4] is listed as “significant decrease” and the cell growth [4] is listed as “inhibition of cell growth”.
In the case of `CC(C)CC[C@@H](O)[C@@H](C)[C@H]1CC[C@H]2[C@@H]3CC=C4C[C@@H](O)CC[C@]4(C)[C@H]3CC[C@]12C` [22(R)-hydroxycholesterol], the “suppressive effects of LXRs on PPARa-induced PPRE-luciferase activity” value [16] is given as “dose dependently enhanced”.
In the case of `CC(O)C(=O)O` (stereo not shown) [lactate], the “increase of O2 consumption” value ([9]; 10 mm in PSS) is given as “without effect”.
In the case of `O=C(OC[C@H]1O[C@@H](OC(=O)c2cc(O)c(O)c(OC(=O)c3cc(O)c(O)c(O)c3)c2)[C@H](OC(=O)c2cc(O)c(O)c(OC(=O)c3cc(O)c(O)c(O)c3)c2)[C@@H](OC(=O)c2cc(O)c(O)c(OC(=O)c3cc(O)c(O)c(O)c3)c2)[C@@H]1OC(=O)c1cc(O)c(O)c(OC(=O)c2cc(O)c(O)c(O)c2)c1)c1cc(O)c(O)c(OC(=O)c2cc(O)c(O)c(O)c2)c1` [gallotannin], the “NAD(+) depletion resulting from PARP1 activation” value [17] is given as “prevented the NAD(+) depletion”, the “poly(ADP-ribose) accumulation” value [17] is given as “increase” and the Cell death [17] is given as “equally reduced”.
In the case of `CC(C)=CCC(=O)C1(O)C(O)=C(C(=O)CC(C)C)C(=O)C1CC=C(C)C` (stereo not shown) [isohumulone], the “activation of PPARalpha” value [12] is listed as “activate”, the “body weight increase versus control group” value [18] is listed as “did not result in significant body weight gain” and the “reduced plasma free fatty acid level” value [18] is listed as 73.1%. For the same compound, the “reduced plasma glucose level” value [18] was 65.3%, the “reduced plasma triglyceride level” value [18] was 62.6% and the “activation of PPARgamma” value [13] was “activate”.
For `NC(=O)c1ccccc1` [benzamide], the “NAD(+) depletion resulting from PARP1 activation” value [17] is given as “prevented the NAD(+) depletion”, the “poly(ADP-ribose) accumulation” value [17] is given as “decrease” and the Cell death [17] is given as “markedly reduced”.
For `O=S(=O)(c1ccccc1)N(CC(F)(F)F)c1ccc(C(O)(C(F)(F)F)C(F)(F)F)cc1` [T0901317], the “suppressive effects of LXRs on PPARa-induced PPRE-luciferase activity” value [16] is listed as “dose dependently enhanced”.
In the case of nobotanin B, the Cell death [17] is given as “equally reduced”.
In the case of `CN(CCOc1ccc(CC2SC(=O)NC2=O)cc1)c1ccccn1` (stereo not shown) [rosiglitazone], the “blood counts, viral loads, CD4 counts” value [19] is given as “no significant changes”.
In the case of `CCCC1([C@H](O)C/C=C/[C@H]2[C@H](O)CC(=O)[C@@H]2CCCCCCC(=O)OC)CCC1` [Butaprost], the cell growth [4] is given as “increased lung carcinoma cell growth”.
